Residue numbers refer to the chain shown, from its start.
What was measured:
Format in all cases: cell-based
5-HT3A receptor K255Q = target: T1, 5-HT3A receptor K255Q (Mus musculus, UniProt P23979, K282Q); test: FlexStation membrane potential dye, 5-HT response, K255Q receptor in HEK293 cells; settings: mean and SEM, n ≥ 3
T1 construct: expressed in transfected cells; host or cells: Xenopus laevis oocytes (cRNA injection)
T1 sequence (P23979 24-489 K282Q): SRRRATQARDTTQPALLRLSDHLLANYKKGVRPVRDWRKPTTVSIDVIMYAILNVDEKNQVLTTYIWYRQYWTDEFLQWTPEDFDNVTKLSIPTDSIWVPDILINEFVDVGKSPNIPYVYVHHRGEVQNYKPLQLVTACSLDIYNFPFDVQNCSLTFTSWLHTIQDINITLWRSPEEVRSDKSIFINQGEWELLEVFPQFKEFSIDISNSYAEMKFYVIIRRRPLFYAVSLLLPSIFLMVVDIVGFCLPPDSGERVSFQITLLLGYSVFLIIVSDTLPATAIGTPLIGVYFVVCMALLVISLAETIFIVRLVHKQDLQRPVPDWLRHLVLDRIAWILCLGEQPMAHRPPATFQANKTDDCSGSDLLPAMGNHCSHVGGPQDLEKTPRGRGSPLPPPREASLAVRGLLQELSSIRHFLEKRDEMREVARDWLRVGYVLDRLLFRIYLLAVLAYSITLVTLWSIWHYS
Procedure: (§1) The mouse 5-HT3A cDNA (Q6J1J7) in pcDNA3.1 (for HEK cell transfection) or pGEMHE (for RNA production) was modified by QuikChange site-directed mutagenesis (Agilent Technologies) to create point mutants (verified by sequencing).
(§2) Human embryonic kidney (HEK) 293 cells were maintained at 37 °C at 5% CO2 in a humidified atmosphere, in Dulbecco's Modified Eagle's Medium/Nutrient Mix F12 (1:1) (Invitrogen, Paisley, UK) with GlutaMAX^TM and 10% fetal bovine serum (GE Healthcare) (DMEM/FBS) and passaged when confluent.
(§3) As described previously (Price and Lummis, [2005]) cells were incubated for 45 min with fluorescent membrane potential-sensitive dye (Membrane Potential Blue kit, Molecular Devices) diluted in Flex buffer (10 mM HEPES, 115 mM NaCl, 1 mM KCl, 1 mM CaCl2, 1 mM MgCl2, and 10 mM glucose, pH 7.4), and subsequently assayed at room temperature for 180 s, with readings every 2 s. […] (log of the concentration of ligand), a is the minimum response, b is the maximum response, and nH is the Hill slope.

5-HT3A receptor C290A = target: T2, 5-HT3A receptor C290A (Mus musculus, UniProt P23979, C317A); test: FlexStation membrane potential dye, 5-HT response, C290A receptor in HEK293 cells; design: expressed in transfected cells; host or cells: HEK293; settings: mean and SEM, n ≥ 3
T2 sequence (P23979 24-489 C317A): T1 sequence (P23979 24-489 K282Q) with Q259K, C294A
Procedure: as §1, §2, §3

5-HT3A receptor F242A = target: T3, 5-HT3A receptor F242A (Mus musculus, UniProt P23979, F269A); test: FlexStation membrane potential dye, 5-HT response, F242A receptor in HEK293 cells; settings: mean and SEM, n ≥ 3
T3 construct: expressed in transfected cells; host or cells: HEK293
T3 sequence (P23979 24-489 F269A): T1 sequence (P23979 24-489 K282Q) with F246A, Q259K
Procedure: as §1, §2, §3

5-HT3A receptor D238A = target: T4, 5-HT3A receptor D238A (Mus musculus, UniProt P23979, D265A); test: Two-electrode voltage clamp, 5-HT response, D238A receptor in Xenopus oocytes; design: key: Mutants that did not respond in the functional assay are marked as non functional (NF)
T4 sequence (P23979 24-489 D265A): T1 sequence (P23979 24-489 K282Q) with D242A, Q259K
Procedure: as §1
Xenopus laevis oocytes from EcoCyte Biosciences (Austin Texas) were injected with 100 pg cRNA (generated with the ThermoFisher mMESSAGE mMACHINE T7 transcription kit) and left in injection media [88 mM NaCl, 2.4 mM NaHCO3, 1 mM KCl, 0.82 mM MgSO4 ·7H20, 5 mM Tris-HCl, 0.33 mM Ca(NO3)2·4H2O, 0.41 mM CaCl2·2H2O, 2.51 mM sodium pyruvate, 0.12 mg/ml theophylline, 0.05 mg/ml gentamicin, pH 7.5] at 16 °C for 24 h. […] The holding potential was −60 mV, using glass microelectrodes with a resistance of approximately 1 MΩ backfilled with 3M KCl.

Compound: NCCc1c[nH]c2ccc(O)cc12 [5-HT]
- nH (5-HT3A receptor K255Q): 1.9± 0.2
- nH (5-HT3A receptor C290A): 1.2 ± 0.2
- nH (5-HT3A receptor F242A): 3.8 ± 0.8
- pEC50 (5-HT3A receptor D238A): NF

From publication PMC8119899, “A Single Mutation in the Outer Lipid-Facing Helix of a Pentameric Ligand-Gated Ion Channel Affects Channel Function Through a Radially-Propagating Mechanism” (Frontiers in Molecular Biosciences, 2021)
